According to ChEMBL document CHEMBL4665672, “Developing new hybrid scaffold for urease inhibition based on carbazole-chalcone conjugates: Synthesis, assessment of therapeutic potential and computational docking analysis” (Bioorg Med Chem, 2019):

Tests used:
[1] = biological target: Urease (Canavalia ensiformis) (UniProt P07374); assay: Inhibition of jack bean urease assessed as reduction in ammonia production at 0.5 mM using urea as substrate incubated for 15 mins by indophenol method
Urease = Urease (Canavalia ensiformis, UniProt P07374); assay: Inhibition of jack bean urease assessed as reduction in ammonia production using urea as substrate incubated for 15 mins by indophenol method
Urease, sequence (P07374 whole entry): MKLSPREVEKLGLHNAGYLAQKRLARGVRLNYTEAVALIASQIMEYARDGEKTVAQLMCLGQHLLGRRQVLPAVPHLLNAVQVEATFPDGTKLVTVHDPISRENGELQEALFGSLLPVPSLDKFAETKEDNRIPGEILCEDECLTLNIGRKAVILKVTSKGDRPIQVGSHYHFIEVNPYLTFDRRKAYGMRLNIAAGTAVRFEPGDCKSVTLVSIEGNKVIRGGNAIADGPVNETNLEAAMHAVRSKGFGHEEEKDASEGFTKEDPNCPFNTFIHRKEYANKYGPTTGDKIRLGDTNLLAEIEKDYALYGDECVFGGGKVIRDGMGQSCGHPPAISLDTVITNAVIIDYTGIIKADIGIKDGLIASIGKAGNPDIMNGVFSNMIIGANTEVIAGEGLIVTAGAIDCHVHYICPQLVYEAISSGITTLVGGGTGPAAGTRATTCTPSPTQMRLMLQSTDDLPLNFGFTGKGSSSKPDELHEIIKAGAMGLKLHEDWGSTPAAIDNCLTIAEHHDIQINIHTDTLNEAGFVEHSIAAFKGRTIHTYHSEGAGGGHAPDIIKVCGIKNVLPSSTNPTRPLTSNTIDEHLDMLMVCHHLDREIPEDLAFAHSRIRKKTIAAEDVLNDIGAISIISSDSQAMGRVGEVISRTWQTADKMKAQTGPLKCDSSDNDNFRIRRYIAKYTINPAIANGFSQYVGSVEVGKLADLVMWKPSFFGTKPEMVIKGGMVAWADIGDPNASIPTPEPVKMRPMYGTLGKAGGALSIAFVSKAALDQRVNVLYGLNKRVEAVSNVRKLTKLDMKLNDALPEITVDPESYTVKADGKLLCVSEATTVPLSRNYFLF

Urease (Canavalia ensiformis), sequence (P07374 whole entry, looked up): as the sequence (P07374 whole entry) above

SMILES	inhibition [1]	IC50 (Urease)
CCCCCCCCn1c2ccc(C(C)=O)cc2c2cc(C(=O)/C=C/c3ccccc3[N+](=O)[O-])ccc21	18.6%	
CCCCCCCCn1c2ccc(C(C)=O)cc2c2cc(C(=O)/C=C/c3ccc(Cl)cc3)ccc21	95.1%	24.7 µM
CCCCCCCCn1c2ccc(C(C)=O)cc2c2cc(C(=O)/C=C/c3ccc(OC)cc3)ccc21	98.5%	6.88 µM
CCCCCCCCn1c2ccc(C(C)=O)cc2c2cc(C(=O)/C=C/c3ccccc3)ccc21	19.3%	
CCCCCCCCn1c2ccc(C(C)=O)cc2c2cc(C(=O)/C=C/c3ccc(N(C)C)cc3)ccc21	22.6%	149 µM
CCCCCCCCn1c2ccc(C(C)=O)cc2c2cc(C(=O)/C=C/c3ccc(Br)cc3)ccc21	24.9%	
CCCCCCCCn1c2ccc(C(C)=O)cc2c2cc(C(=O)/C=C/c3cc(OC)c(OC)c(OC)c3)ccc21	74.5%	150 µM
CCCCCCCCn1c2ccc(C(C)=O)cc2c2cc(C(=O)/C=C/c3cccc(Br)c3)ccc21	10.9%	
CCCCCCCCn1c2ccc(C(C)=O)cc2c2cc(C(=O)/C=C/c3ccccc3Br)ccc21	94.8%	8.93 µM
CCCCCCCCn1c2ccc(C(C)=O)cc2c2cc(C(=O)/C=C/c3cccc([N+](=O)[O-])c3)ccc21	94.4%	14.2 µM
CCCCCCCCn1c2ccc(C(C)=O)cc2c2cc(C(=O)/C=C/c3ccco3)ccc21	78.7%	24.8 µM
CCCCCCCCn1c2ccc(C(C)=O)cc2c2cc(C(=O)/C=C/c3cccc(OC)c3)ccc21	7.9%	
CCCCCCCCn1c2ccc(C(C)=O)cc2c2cc(C(=O)/C=C/c3ccccc3Cl)ccc21	24.5%	
CCCCCCCCn1c2ccc(C(C)=O)cc2c2cc(C(=O)/C=C/c3ccc([N+](=O)[O-])cc3)ccc21	29.3%	
